What all share (format): cell-based
In experiment [1] the test system is DMS-114 (FGFR1 overexpression) cells. In words: cell proliferation assay (CellTiterGlo), DMS-114 cells. To be noted: Homo sapiens, DMS-114, 72 h. The source says: (§1) In some embodiments, the biological assay assess the ability of the compounds to inhibit cell proliferation.
(§2) In some embodiments, cells (e.g., SNU-16 (FGFR2-amplification) cells) may be suspended and dispensed in plates. In some embodiments, cells (e.g., UM-UC-14 (FGFR3-S249C) cells) may be suspended and dispensed in plates. In some embodiments, cells (e.g., DMS-114 (FGFR1 overexpression) cells) may by suspended and dispensed in plates. In some embodiments, cells (e.g., RT-112 (FGFR3-Tacc3 fusion) cells) may be suspended and dispensed in plates. In some embodiments, to determine the effect of the compounds of the present disclosure on cell proliferation, cells (e.g., SNU-16, UM-UC-14, DMS-114 and […] cells) may be incubated in the presence of vehicle control (e.g., DMSO) or a compound of the present disclosure at varying concentrations and the inhibition of cell growth may be determined by luminescent quantification (e.g., of intracellular ATP content using CellTiterGlo), according to the manufacturers protocol. In some embodiments, to determine the IC50 values, the vehicle-treated cells were normalized as viable cells and the growth was analyzed using a software (e.g., the CDD Vault software (Collaborative Drug Discovery, Burlingame, CA)).
Background: Cellular ATP, detected with luciferase, serves as a proxy for viable cell number.

The subject of experiment [2] is UM-UC-14 (FGFR3-S249C) cells. In words: cell proliferation assay (CellTiterGlo), UM-UC-14 cells. Particulars: UMUC14, 72 h.
Description: as §1, §2

In experiment [3] the test system is RT-112 (FGFR3-Tacc3 fusion) cells. In words: cell proliferation assay (CellTiterGlo), RT-112 cells. Particulars: Homo sapiens, RT-112, RT112 cells, 72 hours.
Description: as §1, §2

Each structure is given as a SMILES string.

As a reminder, the IC50 is the midpoint of a concentration-inhibition curve. A higher IC50 goes with lower potency. Consider `Cc1nc2ccc(Oc3ccc4ncc(-c5cnn(C6(C)CCC(F)(F)CC6)c5)nc4c3Cl)cc2[nH]1` [Compound 171], for which the IC50 is not below 0.4 µM in experiment [1] and 0.1 to 0.4 µM in experiment [2].
As to `Cc1nc2ccc(Oc3ccc4ncc(-c5cnn(C6CC7(C6)CC(F)(F)C7)c5)nc4c3Cl)cc2[nH]1` [Compound 101], the IC50 in experiment [3] is 0.1 to 0.4 µM; in experiment [1], not below 0.4 µM; in experiment [2], 0.1 to 0.4 µM.
In the case of `Cc1nc2ccc(Oc3ccc4ncc(-c5cnn(C6CCN(C)C7(CC7)C6)c5)nc4c3Cl)cc2[nH]1` (centres unmarked) [Compound 163], the figures for the IC50 in experiment [1] and in experiment [2] were 0.1 to 0.4 µM and 0.02 to 0.1 µM, respectively.
As for `Cc1nc2ccc(Oc3ccc4ncc(-c5cnn(CC6(O)CC6)c5)nc4c3C3CCOC3)c(F)c2[nH]1` (centres unmarked) [Compound 70], the IC50 in experiment [3], in experiment [1] and in experiment [2] was 0.02 to 0.1 µM each time.
As to `Cc1nc2cc(Oc3ccc4ncc(-c5cnn(CC6CC(F)(F)C6)c5)nc4c3C(F)F)ccc2[nH]1` [Compound 157], the results for the half-maximal inhibitory concentration (IC50) in experiment [1] and in experiment [2] were 0.1 to 0.4 µM and 0.02 to 0.1 µM, respectively.
As to `Cc1nc2ccc(Oc3ccc4ncc(-c5cnn(CC6CC(F)(F)C6)c5)nc4c3C3=CCOC3(C)C)cc2[nH]1` [Compound 71], the results for the IC50 in experiment [3], in experiment [1] and in experiment [2] were 0.1 to 0.4 µM, 0.1 to 0.4 µM and 0.02 to 0.1 µM, respectively.
With `Cc1nc2ccc(Oc3ccc4ncc(-c5cnn(CC6(O)CC6)c5)nc4c3-n3ccnc3)c(F)c2[nH]1` [Compound 103], the IC50 was 0.1 to 0.4 µM in experiment [3], not below 0.4 µM in experiment [1] and 0.1 to 0.4 µM in experiment [2].
With `Cc1nc2ccc(Oc3ccc4ncc(-c5cnn([C@H]6C[C@@H](O)C6)c5)nc4c3Cl)cc2[nH]1` [Compound 173], the IC50 in experiment [1] was 0.1 to 0.4 µM; in experiment [2] it was 0.02 to 0.1 µM.
The matching figures for `Cc1nc2ccc(Oc3ccc4ncc(-c5cnn(CC6CC(F)(F)C6)c5)nc4c3N)cc2[nH]1` [Compound 159]: not below 0.4 µM and not below 0.4 µM.
In the case of `Cc1nc2ccc(Oc3ccc4ncc(-c5cnn(C[C@H]6C[C@](C)(O)C6)c5)nc4c3Cl)c(F)c2[nH]1` [Compound 166], the IC50 in experiment [1] lay in the range of 0.1 to 0.4 µM; in experiment [2] it was 0.02 to 0.1 µM.
Consider `Cc1nc2ccc(Oc3ccc4ncc(-c5cnn(C(C)(C)CO)c5)nc4c3Cl)c(F)c2[nH]1` [Compound 142], for which the IC50 in experiment [3] was less than 0.02 µM; in experiment [1], 0.1 to 0.4 µM; in experiment [2], less than 0.02 µM.
Turning to `Cc1nc2ccc(Oc3ccc4ncc(-c5cnn(CC6CC(F)(F)C6)c5)nc4c3N3CCCC3=O)cc2[nH]1` [Compound 117], the IC50 in experiment [3], in experiment [1] and in experiment [2] was not below 0.4 µM throughout.
As to `Cc1nc2ccc(Oc3ccc4ncc(-c5cnn(C[C@H]6C[C@@](C)(O)C6)c5)nc4c3Cl)c(F)c2[nH]1` [Compound 167], the half-inhibitory concentration (IC50) is 0.02 to 0.1 µM in experiment [1] and less than 0.02 µM in experiment [2].
Consider `COC1CCN(C(=O)Cn2cc(-c3cnc4ccc(Oc5ccc6nc(C)[nH]c6c5)c(Cl)c4n3)cn2)CC1` [Compound 113], for which the IC50 in experiment [3] is 0.02 to 0.1 µM; in experiment [1], not below 0.4 µM; in experiment [2] it was 0.02 to 0.1 µM.
For `Cc1nc2ccc(Oc3ccc4ncc(-c5cnn([C@@H](C)CO)c5)nc4c3Cl)cc2[nH]1` [Compound 125], the half-maximal inhibitory concentration (IC50) in experiment [3] is 0.02 to 0.1 µM; in experiment [1], not below 0.4 µM; in experiment [2] it was 0.02 to 0.1 µM.
`Cc1nc2ccc(Oc3ccc4ncc(-c5cnn(CC6CCS(=O)(=O)CC6)c5)nc4c3S(C)(=O)=O)cc2[nH]1` [Compound 116]: the IC50 in experiment [3] is not below 0.4 µM; in experiment [1] it was not below 0.4 µM; in experiment [2], 0.1 to 0.4 µM.
Take `Cc1nc2ccc(Oc3ccc4ncc(-c5cnn(C6CC7(CC(O)C7)C6)c5)nc4c3Cl)cc2[nH]1` (centres unmarked) [Compound 161]: the IC50 is not below 0.4 µM in experiment [1] and 0.02 to 0.1 µM in experiment [2].
For `Cc1nc2ccc(Oc3ccc4ncc(-c5cnn(CC6(O)CC6)c5)nc4c3C3=CCCC3)cc2[nH]1` [Compound 164], in that order: 0.02 to 0.1 µM and 0.02 to 0.1 µM.
Consider `Cc1nc2ccc(Oc3ccc4ncc(-c5cnn(C6(C)CC=C(F)CC6)c5)nc4c3Cl)cc2[nH]1` (centres unmarked) [Compound 170], for which the IC50 was not below 0.4 µM in experiment [1] and 0.1 to 0.4 µM in experiment [2].
The matching figures for `Cc1nc2ccc(Oc3ccc4ncc(-c5cnn(C(C)(C)C6CC(O)C6)c5)nc4c3Cl)cc2[nH]1` (centres unmarked) [Compound 160]: 0.1 to 0.4 µM and 0.02 to 0.1 µM.
With `Cc1nc2ccc(Oc3ccc4ncc(-c5cnn([C@H](C)C6CCC(F)(F)CC6)c5)nc4c3Cl)cc2[nH]1` [Compound 105], the IC50 in experiment [3] is 0.02 to 0.1 µM; in experiment [1] it was not below 0.4 µM; in experiment [2], 0.02 to 0.1 µM.
For the compound `Cc1nc2cc(Oc3ccc4ncc(-c5cnn(CC6CC(F)(F)C6)c5)nc4c3C=O)ccc2[nH]1` [Compound 158], the IC50 in experiment [1] and in experiment [2] was not below 0.4 µM in each case.
Turning to `CC(=O)N1CCN(C(=O)Cn2cc(-c3cnc4ccc(Oc5ccc6nc(C)[nH]c6c5)c(Cl)c4n3)cn2)CC1` [Compound 114], the IC50 is 0.1 to 0.4 µM in experiment [3], not below 0.4 µM in experiment [1] and not below 0.4 µM in experiment [2].
In the case of `Cc1nc2ccc(Oc3ccc4ncc(-c5cnn([C@@H](C)C6CCC(F)(F)CC6)c5)nc4c3Cl)cc2[nH]1` [Compound 104], the figures for the half-inhibitory concentration (IC50) in experiment [3], in experiment [1] and in experiment [2] were 0.02 to 0.1 µM, not below 0.4 µM and 0.02 to 0.1 µM, respectively.
Regarding `Cc1nc2ccc(Oc3ccc4ncc(-c5cnn(C6CC7(CC(=O)C7)C6)c5)nc4c3Cl)cc2[nH]1` [Compound 165], the values for the half-maximal inhibitory concentration (IC50) in experiment [1] and in experiment [2] were not below 0.4 µM and 0.02 to 0.1 µM, respectively.
For `Cc1nc2ccc(Oc3ccc4ncc(-c5cnn([C@H]6C[C@H](O)C6)c5)nc4c3Cl)cc2[nH]1` [Compound 172], in that order: not below 0.4 µM and 0.1 to 0.4 µM.
As to `Cc1nc2ccc(Oc3ccc4ncc(-c5cnn(CC6(O)CC6)c5)nc4c3I)cc2[nH]1` [Compound 129], the IC50 in experiment [3] was 0.02 to 0.1 µM; in experiment [1], not below 0.4 µM; in experiment [2], 0.02 to 0.1 µM.
For the compound `Cc1nc2ccc(Oc3ccc4ncc(-c5cnn(CC6CC(F)(F)C6)c5)nc4c3NC(=O)CCCCl)cc2[nH]1` [Compound 120], the IC50 is 0.1 to 0.4 µM in experiment [3], not below 0.4 µM in experiment [1] and 0.1 to 0.4 µM in experiment [2].
As to `Cc1nc2ccc(Oc3ccc4ncc(-c5cnn(C[C@H](C)O)c5)nc4c3Cl)c(F)c2[nH]1` [Compound 118], the IC50 in experiment [3] is less than 0.02 µM; in experiment [1], 0.1 to 0.4 µM; in experiment [2] it was less than 0.02 µM.
Take `Cc1nc2ccc(Oc3ccc4ncc(-c5cnn(CC(=O)N6CCOCC6)c5)nc4c3Cl)c(F)c2[nH]1` [Compound 155]: the IC50 was 0.02 to 0.1 µM in experiment [1] and less than 0.02 µM in experiment [2].
The matching figures for `Cc1nc2ccc(Oc3ccc4ncc(-c5cnn(C6CC(=O)C6)c5)nc4c3Cl)c(F)c2[nH]1` [Compound 156]: 0.02 to 0.1 µM and less than 0.02 µM.
For `Cc1nc2ccc(Oc3ccc4ncc(-c5cnn(CC6(O)CC6)c5)nc4c3Cl)c(F)c2[nH]1` [Compound 162], in that order: 0.02 to 0.1 µM and 0.02 to 0.1 µM.
The matching figures for `Cc1nc2ncc(Oc3ccc4ncc(-c5cnn(C6CCC(F)(F)CC6)c5)nc4c3Cl)cc2[nH]1` [Compound 169]: not below 0.4 µM and not below 0.4 µM.
For `Cc1nc2ccc(Oc3ccc4ncc(-c5cnn([C@H]6C[C@@](C)(O)C6)c5)nc4c3Cl)cc2[nH]1` [Compound 168], the IC50 in experiment [1] was not below 0.4 µM; in experiment [2], 0.02 to 0.1 µM.

The values are drawn from patent publication US20240368181A1, “QUINOXALINE DERIVATIVES AND USES THEREOF” (Black Diamond Therapeutics, Inc., priority 2021, published 2024).
